# From PubChem BioAssay AID2060511 (Molecular Pharmacology Branch, DTP, NCI, 2025)
# Tested on: 422866-222-R5-J1-PDC spheroids with HUVEC/MSC, viability
# Experiment: Anticancer human tumor 422866-222-R5-J1-PDC patient-derived pancreatic adenocarcinoma cell line growth inhibition [GQUAD]
# Details: for IC50: curve of first compound; for viability, T/C: stronger effect = lower value
# In short: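 Viability of tumor cells grown as complex spheroids with endothelial and stromal cells, exposed to drug combinations. Top concentration at or near clinical Cmax (else 10 microM), diluted in half-log increments.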
# [1] = second compound 0.0316 µM, first compound 0.0316 µM
# [2] = second compound 0.0316 µM, first compound 0.1 µM
# [3] = second compound 0.0316 µM, first compound 0.316 µM
# [4] = second compound 0.0316 µM, first compound 1 µM
# [5] = second compound 0.0316 µM, first compound 3.16 µM
# [6] = second compound 0.0316 µM, first compound 10 µM
# [7] = second compound 0.1 µM, first compound 0.0316 µM
# [8] = second compound 0.1 µM, first compound 0.1 µM
# [9] = second compound 0.1 µM, first compound 0.316 µM
# [10] = second compound 0.1 µM, first compound 1 µM
# [11] = second compound 0.1 µM, first compound 3.16 µM
# [12] = second compound 0.1 µM, first compound 10 µM
# [13] = second compound 0.316 µM, first compound 0.0316 µM
# [14] = second compound 0.316 µM, first compound 0.1 µM
# [15] = second compound 0.316 µM, first compound 0.316 µM
# [16] = second compound 0.316 µM, first compound 1 µM
# [17] = second compound 0.316 µM, first compound 3.16 µM
# [18] = second compound 0.316 µM, first compound 10 µM
# [19] = second compound 1 µM, first compound 0.0316 µM
# [20] = second compound 1 µM, first compound 0.1 µM
# [21] = second compound 1 µM, first compound 0.316 µM
# [22] = second compound 1 µM, first compound 1 µM
# [23] = second compound 1 µM, first compound 3.16 µM
# [24] = second compound 1 µM, first compound 10 µM
# [25] = second compound 3.16 µM, first compound 0.0316 µM
# [26] = second compound 3.16 µM, first compound 0.1 µM
# [27] = second compound 3.16 µM, first compound 0.316 µM
# [28] = second compound 3.16 µM, first compound 1 µM
# [29] = second compound 3.16 µM, first compound 3.16 µM
# [30] = second compound 3.16 µM, first compound 10 µM
# [31] = second compound 10 µM, first compound 0.0316 µM
# [32] = second compound 10 µM, first compound 0.1 µM
# [33] = second compound 10 µM, first compound 0.316 µM
# [34] = second compound 10 µM, first compound 1 µM
# [35] = second compound 10 µM, first compound 3.16 µM
# [36] = second compound 10 µM, first compound 10 µM
# 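Also: spheroids exposed to compounds for seven days before reading.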
# 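For viability, T/C in this document: percent viability relative to DMSO vehicle control taken as 100%.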
compound,measurement,setting,value
CC(C)n1c(=O)n(C)c2cnc3cc(F)c(-c4ccc(OCCCN5CCCCC5)nc4)cc3c21 + CN(C)c1ccc(Nc2c3ccc(NC(=O)CCN4CCCC4)cc3nc3cc(NC(=O)CCN4CCCC4)ccc23)cc1,IC50,second compound 0.0316 µM,> 10 µM
same,IC50,second compound 0.1 µM,> 10 µM
same,IC50,second compound 0.316 µM,> 10 µM
same,IC50,second compound 1 µM,> 10 µM
same,IC50,second compound 3.16 µM,> 10 µM
same,IC50,second compound 10 µM,> 10 µM
same,"viability, T/C",[1],99.8%
same,"viability, T/C",[2],99%
same,"viability, T/C",[3],93.5%
same,"viability, T/C",[4],96%
same,"viability, T/C",[5],103%
same,"viability, T/C",[6],67.1%
same,"viability, T/C",[7],100%
same,"viability, T/C",[8],78.5%
same,"viability, T/C",[9],101%
same,"viability, T/C",[10],90.5%
same,"viability, T/C",[11],90.7%
same,"viability, T/C",[12],70%
same,"viability, T/C",[13],103%
same,"viability, T/C",[14],95.4%
same,"viability, T/C",[15],92.4%
same,"viability, T/C",[16],81.2%
same,"viability, T/C",[17],88.8%
same,"viability, T/C",[18],70.2%
same,"viability, T/C",[19],87.2%
same,"viability, T/C",[20],92.5%
same,"viability, T/C",[21],87.9%
same,"viability, T/C",[22],98.6%
same,"viability, T/C",[23],83.8%
same,"viability, T/C",[24],55.1%
same,"viability, T/C",[25],82.8%
same,"viability, T/C",[26],80.1%
same,"viability, T/C",[27],86.8%
same,"viability, T/C",[28],88.9%
same,"viability, T/C",[29],81.6%
same,"viability, T/C",[30],61.6%
same,"viability, T/C",[31],73.8%
same,"viability, T/C",[32],80.9%
same,"viability, T/C",[33],80.4%
same,"viability, T/C",[34],64.3%
same,"viability, T/C",[35],68.5%
same,"viability, T/C",[36],51.7%
CC1COCCN1c1cc(C2(O)CC3CCC(C2)O3)c2cnn(-c3ccn[nH]3)c2n1 (centres undefined) + CN(C)c1ccc(Nc2c3ccc(NC(=O)CCN4CCCC4)cc3nc3cc(NC(=O)CCN4CCCC4)ccc23)cc1,IC50,second compound 0.0316 µM,> 10 µM
same,IC50,second compound 0.1 µM,0.0316 µM
same,IC50,second compound 0.316 µM,> 10 µM
same,IC50,second compound 1 µM,0.0316 µM
same,IC50,second compound 3.16 µM,> 10 µM
same,IC50,second compound 10 µM,0.0316 µM
same,"viability, T/C",[1],65.6%
same,"viability, T/C",[2],52.2%
same,"viability, T/C",[3],55.3%
same,"viability, T/C",[4],90%
same,"viability, T/C",[5],87.1%
same,"viability, T/C",[6],92.5%
same,"viability, T/C",[7],79.8%
same,"viability, T/C",[8],49.7%
same,"viability, T/C",[9],45.7%
same,"viability, T/C",[10],108%
same,"viability, T/C",[11],91.4%
same,"viability, T/C",[12],90.4%
same,"viability, T/C",[13],78.8%
same,"viability, T/C",[14],45.1%
same,"viability, T/C",[15],64.5%
same,"viability, T/C",[16],90%
same,"viability, T/C",[17],94.1%
same,"viability, T/C",[18],88.4%
same,"viability, T/C",[19],61.9%
same,"viability, T/C",[20],49.6%
same,"viability, T/C",[21],39.4%
same,"viability, T/C",[22],88%
same,"viability, T/C",[23],89.1%
same,"viability, T/C",[24],83.8%
same,"viability, T/C",[25],57.4%
same,"viability, T/C",[26],51.8%
same,"viability, T/C",[27],50.2%
same,"viability, T/C",[28],87.3%
same,"viability, T/C",[29],95.5%
same,"viability, T/C",[30],83.9%
same,"viability, T/C",[31],59.8%
same,"viability, T/C",[32],47.3%
same,"viability, T/C",[33],43.1%
same,"viability, T/C",[34],93.1%
same,"viability, T/C",[35],88.3%
same,"viability, T/C",[36],88.5%
